According to patent US7611863B2, “Selective staining of biomembranes using voltage-sensitive dyes” (Max-Planck-Gesellschaft zur Foerderung der Wissenschaften …, priority 2004, dated 2009):

Tests used:
[1] = tested on: phosphatase expressing cells; experiment: Destaining of cells after enzyme induced staining; type: cell-based
Protocol: FIG. 18. Destaining. Cells were incubated with Di-12P-ASPBS for 30 seconds, then the medium containing the dye precursor was removed and the cells were washed twice in buffer containing no dye. Fluorescence images were recorded with excitation filter 450/50 nm, emission filter 510 nm, dichroic mirror 505 nm. A. Brightfield image of cells and fluorescence images of cells illustrating destaining of the cell membrane by diffusion of the dye into the bulk medium. B. Time course of destaining. The maximum fluorescence intensity of the membrane is plotted vs. time.
Destaining. […] Cells were incubated with Di-12P-ASPBS for 30 seconds, then the medium containing the dye precursor was removed and the cells were washed twice in buffer containing no dye.

[2] = Enzyme induced staining of liposomes; type: biochemical; conditions: 100 μM lipid; 0.43 μM and 4.31 μM substrate
Protocol: Enzyme induced staining of liposomes. We studied enzymatic hydrolysis of Di-4-ASPP phosphate in the presence of large unilamellar POPC vesicles (LUVs) to observe enzyme induced staining. Tris-NaCl Buffer was used for the preparation of all solutions. To 550 μl of a 200 μM solution of POPC vesicles in a cuvette, an equal volume of Di-4-ASPP phosphate was added to yield concentrations between 0.1 μM and 10.7 μM. 10 μl of PLAP (18.6 DEA Units/ml) were added and the suspension was mixed by pipetting. The cuvette was held at 25° C. Fluorescence (excitation 488 nm, emission 600 nm) was recorded before and after addition of the enzyme with a resolution of 1 sec. Initial velocities were determined from the slope of the first 10 to 20 seconds of the fluorescence traces.
Enzyme Induced staining of liposomes. Now, we combined the two previous experiments. The dye phosphate was hydrolysed by phosphatase in the presence of lipid vesicles. The reaction was observed by the enhancement of fluorescence due to the enhanced binding of the dye alcohol to the lipid. The fluorescence intensity of a vesicle suspension (100 μM lipid) was recorded before and after the addition of the phosphatase with 0.43 μM and 4.31 μM Di-4-ASPP phosphate. […] This corresponds to the ratio of the fluorescence lipid titration data of alcohol and phosphate at 100 μM lipid.

human erythrocytes = experiment: Enzyme induced staining of red blood cells; type: cell-based; conditions: 9.8 μM, PLAP added
Protocol: Enzyme induced staining of red blood cells. Human erythrocytes were prepared according to a slightly modified standard procedure^29. 4 ml of blood of MJH were sucked into a tube coated with EDTA (Vacutainer 367,861, Becton Dickinson, Meylan, France) and centrifuged for 10 min at 1600 g. The pellet (˜1 ml) was washed three times by resuspension and centrifugation for 10 min at 1600 g using 15 ml of a 300 mOsm Tris buffer (50 mM Tris, 110 mM NaCl, pH 7.4). Finally, the pellet was diluted with an equal volume of the same buffer additionally containing 1 mM CaCl2.
The staining experiments with erythrocytes were similar to those with giant vesicles. […]
Di-4-ASPP phosphate was added to human erythrocytes attached to a culture dish to a concentration of 9.8 μM. Membrane fluorescence was measured in the same setup as with giant vesicles. Fluorescence was weaker than with giant vesicles, which we attribute to fluorescence quenching by hemoglobin and the smaller size of the erythrocytes. […]
Plots of the intensity of a row of pixels cutting through the image of an erythrocyte at its maximum diameter are shown in B. The normalized maximum brightness minus the background signal versus time is shown in C. The ratio of final and initial fluorescence was F∞/F0=11-25 with an average of 15. These values are similar to the fluorescence enhancement on giant vesicles. […]

Row | enhancement of fluorescence intensity of vesicle suspension after addition of phosphatase [2] | Compound | membrane leaflet to which the dye binds [1] | fluorescence of stained membranes over time after washing ([1]; diffusion of bound dye to bulk medium) | selectivity of staining after 30 seconds incubation and washing ([1]; medium removed, washed twice) | ratio of final and initial fluorescence F∞/F0, average (human erythrocytes) | ratio of final and initial fluorescence F∞/F0, range (human erythrocytes)
1 | – | Di-12-phosphato-ASPBS [Di-12P-ASPBS] | binds almost exclusively to the extracellular leaflet | the fluorescence intensity of the stained membranes declined | selective staining of phosphatase expressing cells could be observed | – | –
2 | about sixfold | CCCCN(CCCC)c1ccc(/C=C/c2cc[n+](CCCOP(=O)([O-])O)cc2)cc1 [Di-4-ASPP phosphate] | – | – | – | 15 | 11-25
